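The compound was tested at five concentrations on cells cultured in 96-well plates, with a 48-hour exposure period. GI50 is the concentration that inhibits growth by half.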 Active and inactive are the calls of the source. No stated cut-off is given here; in the data, active = GI50 up to about 1.1 µM and inactive = higher. Where a SMILES comes first, the peptide text is derived from it. The star is where a group is joined. Boc = CC(C)(C)OC(=O)*; OBn = c1ccc(CO*)cc1
What was measured:
Experiment in all cases: NCI tumour cell line growth inhibition, 48 h
A498 = test system: A498
OVCAR-3 = test system: OVCAR-3
HCT-116 = test system: HCT-116
ACHN = test system: ACHN
UO-31 = test system: UO-31
SNB-75 = test system: SNB-75
HOP-62 = test system: HOP-62
HCC 2998 = test system: HCC 2998
OVCAR-8 = test system: OVCAR-8
PC-3 = test system: PC-3
OVCAR-5 = test system: OVCAR-5
HCT-15 = test system: HCT-15
SF-539 = test system: SF-539
HOP-92 = test system: HOP-92
MDA-MB-435 = test system: MDA-MB-435
RPMI-8226 = test system: RPMI-8226
Hs-578T = test system: Hs-578T
Malme-3M = test system: Malme-3M
OVCAR-4 = test system: OVCAR-4
SNB-19 = test system: SNB-19

Row | SMILES | GI50 (A498) | GI50 (OVCAR-3) | GI50 (HCT-116) | GI50 (ACHN) | GI50 (UO-31) | GI50 (SNB-75) | GI50 (HOP-62) | GI50 (HCC 2998) | GI50 (OVCAR-8) | GI50 (PC-3) | GI50 (OVCAR-5) | GI50 (HCT-15) [µM] | GI50 (SF-539) | GI50 (HOP-92) | GI50 (MDA-MB-435) | GI50 (RPMI-8226) | GI50 (Hs-578T) | GI50 (Malme-3M) | GI50 (OVCAR-4) | GI50 (SNB-19)
1 | O=C(NCCCCCN1CCC2(CCCCC2)CC1)C(C1CCCCC1)C1CCCCC1 | 4.26 µM (inactive) | 4.17 µM (inactive) | 4.44 µM (inactive) | 3.67 µM (inactive) | 3.61 µM (inactive) | 4.12 µM (inactive) | 1.85 µM (inactive) | 1.3 µM (inactive) | 2.72 µM (inactive) | 2.77 µM (inactive) | 6.22 µM (inactive) | 3.08 | 1.91 µM (inactive) | 3.73 µM (inactive) | 1.85 µM (inactive) | 2.19 µM (inactive) | 3.05 µM (inactive) | 1.75 µM (inactive) | 3.59 µM (inactive) | 5.73 µM (inactive)
2 | Cc1cc[n+]2c(c1)-c1cc(C)cc[n+]1CC2 | > 100 µM (inactive) | 45.2 µM (inactive) | > 100 µM (inactive) | > 100 µM (inactive) | > 100 µM (inactive) | > 100 µM (inactive) | > 100 µM (inactive) | > 100 µM (inactive) | > 66.5 µM (inactive) | > 76.7 µM (inactive) | > 100 µM (inactive) | > 100 | > 100 µM (inactive) | > 100 µM (inactive) | > 100 µM (inactive) | > 100 µM (inactive) | > 100 µM (inactive) | 99.5 µM (inactive) | > 100 µM (inactive) | > 100 µM (inactive)
3 | COC(=O)CN(CC1O[C@@H]2OC(C)(C)O[C@@H]2C1N=[N+]=[N-])C(=O)OCc1ccccc1 (stereo partly specified) | > 100 µM (inactive) | > 100 µM (inactive) | > 100 µM (inactive) | > 100 µM (inactive) | > 100 µM (inactive) | > 100 µM (inactive) | > 100 µM (inactive) | > 100 µM (inactive) | > 100 µM (inactive) | > 100 µM (inactive) | > 100 µM (inactive) | > 100 | > 100 µM (inactive) | > 100 µM (inactive) | > 100 µM (inactive) | > 100 µM (inactive) | 16 µM (inactive) | – | > 100 µM (inactive) | > 100 µM (inactive)
4 | CC(C)=C1C(=O)C[C@]2(C)C[C@H]3O[C@]3(C)CC[C@@H]3O[C@@]3(C)CC[C@@H]12 | > 50 µM (inactive) | > 50 µM (inactive) | > 50 µM (inactive) | > 50 µM (inactive) | 30.3 µM (inactive) | > 50 µM (inactive) | > 50 µM (inactive) | > 50 µM (inactive) | > 50 µM (inactive) | > 50 µM (inactive) | > 50 µM (inactive) | > 50 | > 50 µM (inactive) | > 50 µM (inactive) | > 50 µM (inactive) | > 50 µM (inactive) | > 50 µM (inactive) | – | > 50 µM (inactive) | > 50 µM (inactive)
5 | Cc1cccc2c1c(=O)c1c(O)cc(O)cc1n2C | 59 µM (inactive) | > 100 µM (inactive) | 78.3 µM (inactive) | > 100 µM (inactive) | – | 39.4 µM (inactive) | > 100 µM (inactive) | > 100 µM (inactive) | > 100 µM (inactive) | > 100 µM (inactive) | > 100 µM (inactive) | > 100 | > 100 µM (inactive) | 92.9 µM (inactive) | > 100 µM (inactive) | > 100 µM (inactive) | 33.8 µM (inactive) | > 100 µM (inactive) | > 100 µM (inactive) | > 100 µM (inactive)
6 | O=C(O)c1cccc(S(=O)(=O)NN2C(=O)CSC2c2ccc(Cl)cc2Cl)c1 (stereo unspecified) | > 100 µM (inactive) | 36.1 µM (inactive) | 28.7 µM (inactive) | > 100 µM (inactive) | > 100 µM (inactive) | 30.2 µM (inactive) | 44.9 µM (inactive) | > 100 µM (inactive) | 15.4 µM (inactive) | 94.2 µM (inactive) | > 100 µM (inactive) | 30.2 | 19.5 µM (inactive) | > 100 µM (inactive) | 21.2 µM (inactive) | 97.3 µM (inactive) | 19 µM (inactive) | 82.4 µM (inactive) | – | 49.5 µM (inactive)
7 | O=S1(=O)c2ccccc2C(Nc2ccccc2)N1c1ccccc1 (stereo unspecified) | > 100 µM (inactive) | > 100 µM (inactive) | > 100 µM (inactive) | > 100 µM (inactive) | 68.1 µM (inactive) | > 100 µM (inactive) | > 100 µM (inactive) | > 100 µM (inactive) | > 100 µM (inactive) | > 100 µM (inactive) | > 100 µM (inactive) | 48 | > 100 µM (inactive) | 38.5 µM (inactive) | 45.1 µM (inactive) | > 100 µM (inactive) | > 100 µM (inactive) | > 100 µM (inactive) | 67.6 µM (inactive) | –
8 | CC(NC(=O)C(Cc1ccccc1)NC(=O)C(Cc1ccccc1)NC(=O)OC(C)(C)C)C(=O)OCc1ccccc1 (stereo not drawn) (Boc-Phe-Phe-Ala-OBn; configuration not given here) | > 100 µM (inactive) | > 100 µM (inactive) | 76.9 µM (inactive) | – | 27.7 µM (inactive) | 50.8 µM (inactive) | > 100 µM (inactive) | 54.2 µM (inactive) | > 100 µM (inactive) | 68.7 µM (inactive) | > 100 µM (inactive) | – | 37.9 µM (inactive) | 20.4 µM (inactive) | > 100 µM (inactive) | 32.3 µM (inactive) | 73.3 µM (inactive) | 93.1 µM (inactive) | – | –
9 | NN=C(CC(O)(C(F)(F)Cl)C(F)(F)Cl)CC(O)(C(F)(F)Cl)C(F)(F)Cl | > 10 µM (inactive) | > 10 µM (inactive) | > 10 µM (inactive) | > 10 µM (inactive) | – | > 10 µM (inactive) | > 10 µM (inactive) | > 10 µM (inactive) | > 10 µM (inactive) | > 10 µM (inactive) | > 10 µM (inactive) | > 10 | > 10 µM (inactive) | > 10 µM (inactive) | > 10 µM (inactive) | > 10 µM (inactive) | > 10 µM (inactive) | > 10 µM (inactive) | > 10 µM (inactive) | > 10 µM (inactive)
10 | c1ccc2c(-c3ccnc(-c4c[nH]c5ccccc45)n3)c[nH]c2c1 | 2.23 µM (inactive) | 6.4 µM (inactive) | 4.36 µM (inactive) | 3.13 µM (inactive) | 3.98 µM (inactive) | – | 10.4 µM (inactive) | 2.79 µM (inactive) | 5.93 µM (inactive) | 2.72 µM (inactive) | > 100 µM (inactive) | 3.19 | 4.37 µM (inactive) | 1.7 µM (inactive) | 4.52 µM (inactive) | 1.91 µM (inactive) | 2.81 µM (inactive) | – | 8.69 µM (inactive) | 4.81 µM (inactive)
11 | Cn1c(=O)c2c(nc3n(CC(O)CCl)c(=O)ccn23)n(C)c1=O (stereo unspecified) | 54.5 µM (inactive) | 77.1 µM (inactive) | 18.2 µM (inactive) | 15.4 µM (inactive) | 37.5 µM (inactive) | 29.1 µM (inactive) | 46.9 µM (inactive) | 58.7 µM (inactive) | 18.7 µM (inactive) | > 100 µM (inactive) | > 100 µM (inactive) | 34.9 | 46.7 µM (inactive) | 45.9 µM (inactive) | 47.8 µM (inactive) | 19.5 µM (inactive) | 41.4 µM (inactive) | – | 61.8 µM (inactive) | 60 µM (inactive)
12 | CCC(=O)NCC1CCCN2CCCCC12 (stereo unspecified) | > 100 µM (inactive) | – | > 100 µM (inactive) | > 100 µM (inactive) | > 100 µM (inactive) | > 100 µM (inactive) | – | > 100 µM (inactive) | > 100 µM (inactive) | > 100 µM (inactive) | – | > 100 | > 100 µM (inactive) | > 100 µM (inactive) | > 100 µM (inactive) | > 100 µM (inactive) | > 100 µM (inactive) | 44.7 µM (inactive) | > 100 µM (inactive) | > 100 µM (inactive)
13 | CCOC(=O)c1cc(Br)c(-c2onc(C)c2Br)[nH]1 | 48.2 µM (inactive) | > 100 µM (inactive) | 28.8 µM (inactive) | – | > 100 µM (inactive) | > 100 µM (inactive) | 18.3 µM (inactive) | 53.7 µM (inactive) | 27.6 µM (inactive) | > 100 µM (inactive) | > 100 µM (inactive) | > 100 | 31.6 µM (inactive) | 48.1 µM (inactive) | > 100 µM (inactive) | > 100 µM (inactive) | 26.7 µM (inactive) | 34.4 µM (inactive) | 88.1 µM (inactive) | 24.9 µM (inactive)
14 | O=C(O)/C(Cc1ccc([N+](=O)[O-])cc1)=N\O | > 100 µM (inactive) | > 100 µM (inactive) | > 100 µM (inactive) | > 100 µM (inactive) | 23.8 µM (inactive) | – | > 100 µM (inactive) | > 100 µM (inactive) | > 100 µM (inactive) | > 100 µM (inactive) | > 100 µM (inactive) | > 100 | > 100 µM (inactive) | 27.9 µM (inactive) | > 100 µM (inactive) | > 100 µM (inactive) | 31.8 µM (inactive) | > 100 µM (inactive) | 89.5 µM (inactive) | > 100 µM (inactive)
15 | CC1(C)CC2=C(Sc3ccccc3N2)C(=O)C1C(=O)C(=O)Nc1cc(Cl)ccc1Cl (stereo unspecified) | > 100 µM (inactive) | > 100 µM (inactive) | > 100 µM (inactive) | > 100 µM (inactive) | > 100 µM (inactive) | 38.2 µM (inactive) | – | > 100 µM (inactive) | > 100 µM (inactive) | 84.5 µM (inactive) | > 100 µM (inactive) | > 100 | > 100 µM (inactive) | > 100 µM (inactive) | > 100 µM (inactive) | > 100 µM (inactive) | > 100 µM (inactive) | > 100 µM (inactive) | 30.1 µM (inactive) | > 100 µM (inactive)

Source: ChEMBL document CHEMBL1201862, “PubChem BioAssay data set” (2004)
